In ChEMBL document CHEMBL5505987 (Eur J Med Chem, 2024):
The source made the active and inactive calls. The calls are words filed in the database; no cut-off is given here.

How the values were obtained:
MDA-MB-231 [1] = assay: Cytotoxicity against human MDA-MB-231 cells assessed as cell viability by MTT assay; type: functional, cell-based
MCF7 = assay: Cytotoxicity against human MCF7 cells assessed as cell viability by MTT assay; type: functional, cell-based
4T1 [2] = assay: Cytotoxicity against mouse 4T1 cells assessed as cell viability by MTT assay; type: functional, cell-based
HeLa = assay: Cytotoxicity against human HeLa cells assessed as cell viability by MTT assay; type: functional, cell-based
A549 = assay: Cytotoxicity against human A549 cells assessed as cell viability by MTT assay; type: functional, cell-based
[3] = Cytotoxicity against human BEAS-2B cells assessed as cell viability by MTT assay; type: toxicity, cell-based
[4] = Cytotoxicity against human HFF cells assessed as cell viability by MTT assay; type: toxicity, cell-based
MDA-MB-231 [5] = assay: Anti-proliferative activity against human MDA-MB-231 cells assessed as cell viability measured after 24 hrs by MTT assay; type: functional, cell-based; settings: dose 1-8 µM
4T1 [6] = assay: Anti-proliferative activity against mouse 4T1 cells assessed as cell viability measured after 24 hrs by MTT assay; type: functional, cell-based; settings: dose 1-8 µM
MDA-MB-231 [7] = assay: Inhibition of colony formation in human MDA-MB-231 cells assessed as reduction in colony formation treated for 10 days medium refreshed every two days by crustal violet based assay; type: functional, cell-based; settings: time 10.0 day
4T1 [8] = assay: Inhibition of colony formation in mouse 4T1 cells assessed as reduction in colony formation treated for 10 days medium refreshed every two days by crustal violet based assay; type: functional, cell-based; settings: time 10.0 day
MDA-MB-231 [9] = assay: Reduction in PCNA protein expression in human MDA-MB-231 cells by Western blotting analysis; type: functional, cell-based; settings: dose 1-4 µM
MDA-MB-231 [10] = assay: Anti-invasive activity in human MDA-MB-231 cells assessed as reduction in cell invasion incubated for 24 hrs by Transwell assay; type: functional, cell-based; settings: dose 3-6 µM
4T1 [11] = assay: Anti-invasive activity in mouse 4T1 cells assessed as reduction in cell invasion incubated for 24 hrs by Transwell assay; type: functional, cell-based; settings: dose 3-6 µM
MDA-MB-231 [12] = assay: Antimigratory activity against human MDA-MB-231 cells assessed as decrease in migration of tumor cells into scratching region at 8 to 10 uM incubated for 12 to 24 hrs by Wound healing assay; type: functional, cell-based; settings: dose 8-10 µM, time 12-24 hrs
4T1 [13] = assay: Antimigratory activity against mouse 4T1 cells assessed as decrease in migration of tumor cells into scratching region at 8 to 10 uM incubated for 12 to 24 hrs by Wound healing assay; type: functional, cell-based; settings: dose 8-10 µM, time 12-24 hrs
MDA-MB-231 [14] = assay: Anti-metastatic activity in human MDA-MB-231 cells assessed as decrease in vimentin protein level at 1 to 4 uM by Western blotting analysis; type: functional, cell-based; settings: dose 1-4 µM
MDA-MB-231 [15] = assay: Anti-metastatic activity in human MDA-MB-231 cells assessed as decrease in ZEB1 protein level at 1 to 4 uM by Western blotting analysis; type: functional, cell-based; settings: dose 1-4 µM
MDA-MB-231 [16] = assay: Anti-metastatic activity in human MDA-MB-231 cells assessed as increase in E-cadherin protein level at 1 to 4 uM by Western blotting analysis; type: functional, cell-based; settings: dose 1-4 µM
MDA-MB-231 [17] = assay: Induction of apoptosis in human MDA-MB-231 cells assessed as increase in apoptotic rate at 1 uM incubated for 24 hrs by Annexin V-FITC/PI double staining by flow cytometry; type: functional
MDA-MB-231 [18] = assay: Induction of apoptosis in human MDA-MB-231 cells assessed as increase in apoptotic rate at 4 uM incubated for 24 hrs by Annexin V-FITC/PI double staining by flow cytometry; type: functional
4T1 [19] = assay: Induction of apoptosis in mouse 4T1 cells assessed as increase in apoptotic rate at 1.5 uM incubated for 24 hrs by Annexin V-FITC/PI double staining by flow cytometry; type: functional
4T1 [20] = assay: Induction of apoptosis in mouse 4T1 cells assessed as increase in apoptotic rate at 6 uM incubated for 24 hrs by Annexin V-FITC/PI double staining by flow cytometry; type: functional
MDA-MB-231 [21] = assay: Induction of apoptosis in human MDA-MB-231 cells assessed as decrease in Bcl-2 expression at 1 to 4 uM incubated for 24 hrs by Western blotting analysis; type: functional, cell-based; settings: dose 1-4 µM
MDA-MB-231 [22] = assay: Induction of apoptosis in human MDA-MB-231 cells assessed as increase in Bax expression at 1 to 4 uM incubated for 24 hrs by Western blotting analysis; type: functional, cell-based; settings: dose 1-4 µM
MDA-MB-231 [23] = assay: Induction of apoptosis in human MDA-MB-231 cells assessed as increase in cleaved PARP expression at 1 to 4 uM incubated for 24 hrs by Western blotting analysis; type: functional, cell-based; settings: dose 1-4 µM
MDA-MB-231 [24] = assay: Induction of apoptosis in human MDA-MB-231 cells assessed as increase in cleaved caspase 3 expression at 1 to 4 uM incubated for 24 hrs by Western blotting analysis; type: functional, cell-based; settings: dose 1-4 µM
MDA-MB-231 [25] = assay: Induction of apoptosis in human MDA-MB-231 cells assessed as increase in cleaved caspase 9 expression at 1 to 4 uM incubated for 24 hrs by Western blotting analysis; type: functional, cell-based; settings: dose 1-4 µM
MDA-MB-231 [26] = assay: Induction of cell cycle arrest in human MDA-MB-231 cells assessed as accumulation of cells at G0/G1 phase at 1 uM measured after 24 hrs by PI staining by flow cytometry; type: functional
MDA-MB-231 [27] = assay: Induction of cell cycle arrest in human MDA-MB-231 cells assessed as accumulation of cells at G0/G1 phase at 4 uM measured after 24 hrs by PI staining by flow cytometry; type: functional

O=C1C[C@@H](c2ccccc2)Oc2cc(O)c([C@H](/C=C/C[C@@H](O)CCc3ccccc3)c3ccccc3)c(O)c21
IC50 (MDA-MB-231 [1]): 4.33 µM | IC50 (MCF7): 8.64 µM | IC50 (4T1 [2]): 2.82 µM | IC50 (HeLa): 2.2 µM | IC50 (A549): 3.21 µM | IC50 [3]: 5.27 µM | IC50 [4]: 5.91 µM | Activity (MDA-MB-231 [5]): Dose-Dependent Effect | Activity (4T1 [6]): Dose-Dependent Effect | inhibition (MDA-MB-231 [7]): Dose-Dependent Effect | inhibition (4T1 [8]): Dose-Dependent Effect | inhibition (MDA-MB-231 [9]): Dose-Dependent Effect | Activity (MDA-MB-231 [10]): Dose-Dependent Effect | Activity (4T1 [11]): Dose-Dependent Effect | Activity (MDA-MB-231 [12]): Active | Activity (4T1 [13]): Active | Activity (MDA-MB-231 [14]): Active | Activity (MDA-MB-231 [15]): Active | Activity (MDA-MB-231 [16]): Active | Activity (MDA-MB-231 [17]): 6.84% | Activity (MDA-MB-231 [18]): 46.4% | Activity (4T1 [19]): 6.84% | Activity (4T1 [20]): 48.24% | Activity (MDA-MB-231 [21]): Active | Activity (MDA-MB-231 [22]): Active | Activity (MDA-MB-231 [23]): Active | Activity (MDA-MB-231 [24]): Active | Activity (MDA-MB-231 [25]): Active | Activity (MDA-MB-231 [26]): 49.59% | Activity (MDA-MB-231 [27]): 71.78%
